The values below are quoted from earlier work in patent publication US20220088024A1, “METHODS FOR TREATING CANCER USING TOZADENANT” (Biotie Therapies, Inc., priority 2018, published 2022).

The structures appear in SMILES notation.

In the data set the test system is mouse tumor models. The note with it: cited from earlier work.

Turning to `Cc1ccc(-c2nc(N)nc3c2nnn3Cc2cccc(CO[C@H]3CCOC3)n2)o1` [CPI444], for the setting “alone and in combination with an anti-PD-1 agent (Willingham et al. 2016)”, the “Efficacy in mouse tumor models” value was “effective”.

Consider `Nc1nc2c(cnn2CCc2ccccc2)c2nc(-c3ccco3)nn12` [SCH 58261], for which the “Activity in a mouse tumor model” value (monotherapy (Hammerl et al. 2016)) is “demonstrated activity as monotherapy”.
